The record followed here is US12108761B2, “Mesostigmata mite control agent” (MEIJI SEIKA PHARMA CO., LTD., priority 2017, dated 2024).

What all share (assay type): in vivo
The subject of experiment [1] is red mites (Dermanyssus gallinae). Kind of experiment: Test Example 4: controlling effect on red mites, Pasteur pipette treated with acetone solution. Conditions: 24 hours after treatment, unfed adult red mites; for pest or weed control at 5000 ppm: Dermanyssus gallinae, read-out: Ratio of dead and affected mites; for Ratio of dead and affected mites: 5000 ppm. The source says: The tip of a Pasteur pipette was sealed with Parafilm, and an acetone solution (liquid agent) of each of the samples shown in Table 5 below diluted to a predetermined concentration was poured into the pipette through an upper portion thereof. One minute later, the Parafilm at the tip was detached, and the liquid agent was discharged. After the pipette was air dried, absorbent cotton was inserted to an upper end of the pipette, and 20 unfed adult red mites (Dermanyssus gallinae) were released into the pipette. After the tip was sealed with Hemato-Seal, the pipette was stored in the dark in an incubator at a temperature of 25 to 28° C. and a humidity of 40 to 60%. […] Then, the ratio (%) of dead and affected mites was calculated according to the following formula. Acequinocyl and fluacrypyrim were used as control drugs. The ratio (%) of dead and affected mites={(the number of dead mites+the number of affected mites)/(the number of survived mites+the number of affected mites+the number of dead mites)}×100

Experiment [2] has the same test system. Kind of experiment: Test Example 1: controlling effect on red mites, Pasteur pipette treated with acetone solution. Conditions: unfed adult red mites. The source says:
The tip of a Pasteur pipette was sealed with Parafilm, and an acetone solution (liquid agent) of each of the samples shown in Table 2 below diluted to a predetermined concentration was poured into the pipette through an upper portion thereof. One minute later, the Parafilm at the tip was detached, and the liquid agent was discharged. After the pipette was air dried, absorbent cotton was inserted to an upper end of the pipette, and 20 unfed adult red mites (Dermanyssus gallinae) were released into the pipette. After the tip was sealed with Hemato-Seal, the pipette was stored in the dark in an incubator at a temperature of 27 to 28° C. and a humidity of 50 to 60%. After 24, 48, and 72 hours had passed since the treatment, the mites were observed under a stereomicroscope to determine whether the mites were dead or alive and whether the mites were affected. Then, the ratio (%) of dead and affected mites was calculated according to the following formula. Spinosad, trichlorfon, and permethrin were used as control drugs. The ratio (%) of dead and affected mites={(the number of dead mites+the number of affected mites)/(the number of survived mites+the number of affected mites+the number of dead mites)}×100

In experiment [3] the test system is northern fowl mites (Ornithonyssus sylviarum). Kind of experiment: Test Example 3: controlling effect on northern fowl mites, Pasteur pipette treated with acetone solution. Conditions: fed adult northern fowl mites. The source says: The tip of a Pasteur pipette was sealed with Parafilm, and an acetone solution (liquid agent) of each of the samples shown in Table 4 below diluted to a predetermined concentration was poured into the pipette through an upper portion thereof. One minute later, the Parafilm at the tip was detached, and the liquid agent was discharged. After the pipette was air dried, absorbent cotton was inserted to an upper end of the pipette, and 10 fed adult northern fowl mites (Ornithonyssus sylviarum) were released into the pipette. After the tip was sealed with Hemato-Seal, the pipette was stored in the dark in an incubator at 25° C. and at a humidity of 80%. After 2 and 24 hours had passed since the treatment, the mites were observed under a stereomicroscope to determine whether the mites were dead or alive and whether the mites were affected. Then, the ratio (%) of dead and affected mites was calculated. The ratio (%) of dead and affected mites={(the number of dead mites+the number of affected mites)/(the number of survived mites+the number of affected mites+the number of dead mites)}×100

With `C[C@@]1(c2ccc(Oc3ccccc3)cc2)OC(=O)N(Nc2ccccc2)C1=O` (racemic) [Famoxadone], the pest or weed control at 5000 ppm in experiment [1] was 81.7%.
Take `Cc1nc(C(F)(F)F)c(C(=O)Nc2c(Br)cc(OC(F)(F)F)cc2Br)s1` [Thifluzamide]: the pest or weed control at 5000 ppm in experiment [1] is 63.2%.
As to `O=C(NCCc1ncc(C(F)(F)F)cc1Cl)c1ccccc1C(F)(F)F` [Fluopyram], in experiment [1], the pest or weed control at 5000 ppm was found to be 50.5%.
On to `CC1(C)C(C=C(Cl)Cl)C1C(=O)OCc1cccc(Oc2ccccc2)c1` (stereo not shown) [Permethrin], for which, in experiment [2] (100 ppm, 48 hours later), the “Ratio of dead and affected mites” value is on record as 6%.
Turning to `Cc1nn(C)c(F)c1C(=O)Nc1ccccc1C(C)CC(C)C` (stereo not shown) [Penflufen], in experiment [1], the “Ratio of dead and affected mites” value was 20.5%.
On to `Cc1ccccc1C(=O)Nc1cccc(OC(C)C)c1` [Mepronil], for which, in experiment [1], the pest or weed control at 5000 ppm was 52.1%.
Regarding `CNC(=O)/C(=N/OC)c1ccccc1CO/N=C(C)/C(=N/OC)C(/C)=N/OC` [Orysastrobin], the “Ratio of dead and affected mites” value in experiment [1] was found to be 82.6%.
Take `CCC(Nc1ncnc(C)c1Cl)c1ccc(OC(F)F)cc1` (stereo not shown) [Diflumetorim]: the pest or weed control at 5000 ppm in experiment [1] was 100%.
In the case of `Cc1cc(OC(C)C)ccc1C(=O)C(C)(C)NC(=O)c1sccc1C` [Isofetamid], the “Ratio of dead and affected mites” value in experiment [1] is reported as 17.4%.
Consider `CC(=O)Oc1c(C)c(C)nc2c(C)cc(F)cc12` [Compound D], for which the “Ratio of dead and affected mites” value in experiment [2] (100 ppm, 24 hours later) is on record as 100%; in experiment [2] (100 ppm, 48 hours later), 100%.
On to `O=C(Nc1ccccc1-c1ccc(Cl)cc1)c1cccnc1Cl` [Boscalid], for which, in experiment [1], the pest or weed control at 5000 ppm came out at 44.5%.
Same read-out and setting: for `COC(=O)NCc1cc(/C(C)=N/OCc2cccc(C)n2)ccc1Cl` [Pyribencarb] the value was 31.1%.
In the case of `CO/C=C(/C(=O)OC)c1ccccc1COc1cccc(C(F)(F)F)n1` [Picoxystrobin], the “Ratio of dead and affected mites” value in experiment [1] amounted to 80.5%.
In the case of `Cc1nn(C)c(Oc2ccccc2)c1C=NOCc1ccc(C(=O)OC(C)(C)C)cc1` [Fenpyroximate], the pest or weed control at 5000 ppm in experiment [1] was 100%.
As for `COC(=O)Oc1c(C)c(C)nc2ccc(F)cc12` [Compound F], in experiment [2] (50 ppm, 24 hours later), the “Ratio of dead and affected mites” value is listed as 55%.
`O=[N+]([O-])c1cc(C(F)(F)F)c(Cl)c([N+](=O)[O-])c1Nc1ncc(C(F)(F)F)cc1Cl` [Fluazinam]: the pest or weed control at 5000 ppm in experiment [1] stood at 82.5%.
Take `CC1(C)C(C=C(Cl)c2ccc(Cl)cc2)C1C(=O)OC(C#N)c1ccc(F)c(Oc2ccccc2)c1` (stereo not shown) [Flumethrin]: the “Ratio of dead and affected mites” value in experiment [3] (5 ppm, 24 hours later) is reported as 67%; in experiment [3] (20 ppm, 24 hours later) it was 83%; in experiment [3] (50 ppm, 2 hours later) it was 100%; in experiment [3] (50 ppm, 24 hours later), 100%.
Consider `CO/C=C(/C(=O)OC)c1ccccc1COc1cc(C(F)(F)F)nc(OC(C)C)n1` [Fluacrypyrim], for which the pest or weed control at 5000 ppm in experiment [1] came out at 19.3%.
For `CC(C)CC(C)c1sccc1NC(=O)c1cn(C)nc1C(F)(F)F` (stereo not shown) [Penthiopyrad], the pest or weed control at 5000 ppm in experiment [1] stood at 35%.
In the case of `CO/C=C(/C(=O)OC)c1ccccc1Oc1cc(Oc2ccccc2C#N)ncn1` [Azoxystrobin], the “Ratio of dead and affected mites” value in experiment [1] came to 55.2%.
With `CC(=O)Oc1c(C)c(C)nc2c(C)cc(Br)cc12` [Compound C], the “Ratio of dead and affected mites” value turned out to be 91% in experiment [2] (100 ppm, 24 hours later) and 95% in experiment [2] (100 ppm, 48 hours later).
As for `CC(=O)Oc1c(C)c(C)nc2c(F)cc(C(C)(C)C)cc12` [Compound A], the “Ratio of dead and affected mites” value worked out at 7% in experiment [2] (200 ppm, 24 hours later); 81% in experiment [2] (200 ppm, 48 hours later); 98% in experiment [2] (200 ppm, 72 hours later); 100% in experiment [2] (1000 ppm, 24 hours later); 100% in experiment [2] (1000 ppm, 48 hours later); 100% in experiment [2] (1000 ppm, 72 hours later). Further, the “Ratio of dead and affected mites” value in experiment [3] (50 ppm, 2 hours later) was 13%; in experiment [3] (50 ppm, 24 hours later), 92%; in experiment [3] (200 ppm, 2 hours later) it was 53%; in experiment [3] (200 ppm, 24 hours later), 100%; in experiment [3] (1000 ppm, 2 hours later), 100%; in experiment [3] (1000 ppm, 24 hours later), 100%.
Consider `COC(=O)N(OC)c1ccccc1COc1ccn(-c2ccc(Cl)cc2)n1` [Pyraclostrobin], for which the pest or weed control at 5000 ppm in experiment [1] came to 77.3%.
Consider `CC1=C(C(=O)Nc2ccccc2)SCCO1` [Carboxin], for which the pest or weed control at 5000 ppm in experiment [1] turned out to be 42.6%.
On to `CON=C(C(=O)OC)c1ccccc1CON=C(C)c1cccc(C(F)(F)F)c1` [Trifloxystrobin], for which, in experiment [1], the pest or weed control at 5000 ppm stood at 75.7%.
Take `CC(=O)Oc1c(C)c(C)nc2c(C)cc(C(C)(C)C)cc12` [Compound B]: the “Ratio of dead and affected mites” value in experiment [2] (100 ppm, 24 hours later) is listed as 100%; in experiment [2] (100 ppm, 48 hours later), 100%.
For the compound `CC(C)Oc1cccc(NC(=O)c2ccccc2C(F)(F)F)c1` [Flutolanil], the pest or weed control at 5000 ppm in experiment [1] was 39.5%.
Turning to `Cc1c(Br)c2ccc(F)cc2n1S(=O)(=O)c1ncn(S(=O)(=O)N(C)C)n1` [Amisulbrom], the “Ratio of dead and affected mites” value in experiment [1] came out at 92.9%.
Consider `CO/N=C(/C1=NOCCO1)c1ccccc1Oc1ncnc(Oc2ccccc2Cl)c1F` [Fluoxastrobin], for which the pest or weed control at 5000 ppm in experiment [1] was 66.5%.
Turning to `Cn1cc(C(=O)Nc2ccccc2-c2cc(F)c(F)c(F)c2)c(C(F)F)n1` [Fluxapyroxad], the “Ratio of dead and affected mites” value in experiment [1] stood at 61.3%.
Take `CNC(=O)/C(=N/OC)c1ccccc1Oc1ccccc1` [Metominostrobin]: the pest or weed control at 5000 ppm in experiment [1] came out at 50%.
On the same count and under the same terms, for `C/C(=N/Nc1nc(C)cc(C)n1)c1ccccc1C` [Ferimzone] the value was 53.5%.
In the case of `COP(=O)(OC)C(O)C(Cl)(Cl)Cl` (stereo not shown) [Trichlorfon], the “Ratio of dead and affected mites” value in experiment [2] (5000 ppm, 48 hours later) turned out to be 84%.
As for `CCCCCCCCCCCCC1=C(OC(C)=O)C(=O)c2ccccc2C1=O` [Acequinocyl], the pest or weed control at 5000 ppm in experiment [1] was found to be 93.3%.
In the case of `CO/N=C(/C(=O)OC)c1ccccc1COc1ccccc1C` [Kresoxim-Methyl], the pest or weed control at 5000 ppm in experiment [1] stood at 52.8%.
Regarding Spinosad, the “Ratio of dead and affected mites” value is reported as 33% in experiment [2] (200 ppm, 24 hours later); 69% in experiment [2] (200 ppm, 48 hours later); 72% in experiment [2] (200 ppm, 72 hours later); 32% in experiment [2] (1000 ppm, 24 hours later); 82% in experiment [2] (1000 ppm, 48 hours later); 95% in experiment [2] (1000 ppm, 72 hours later). In addition, the “Ratio of dead and affected mites” value in experiment [3] (50 ppm, 2 hours later) was 18%; in experiment [3] (50 ppm, 24 hours later), 80%; in experiment [3] (200 ppm, 2 hours later), 3%; in experiment [3] (200 ppm, 24 hours later), 94%.
For `Cc1ccc(-c2c(Cl)nc(C#N)n2S(=O)(=O)N(C)C)cc1` [Cyazofamid], the pest or weed control at 5000 ppm in experiment [1] came to 23.2%.
Regarding `Cc1nn(C)c(Cl)c1C(=O)Nc1cccc2c1C(C)OC2(C)C` (stereo not shown) [Furametpyr], in experiment [1], the “Ratio of dead and affected mites” value is 56.1%.
